Reference: ChEMBL document CHEMBL1201862, “PubChem BioAssay data set” (2004)
Active and inactive are the calls of the source.

Columns and labels:
Cytochrome P450 3A4 = Cytochrome P450 3A4 (Homo sapiens, UniProt P08684);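 note: CYP3A4 tested as one member of a cytochrome P450 panel screen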
[1] = molecular target: T1, Heat shock factor protein 1 (Mus musculus, UniProt P38532); test: inhibition of MG132-induced HSE-luciferase signal, confirmation, cell-based, NIH3T3, luminescence, dose retest (AID 2382); format: functional;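 note: NIH3T3 fibroblasts with HSF1-driven luciferase reporter stressed by proteasome inhibitor MG132; luminescence from HSF1-driven luciferase expression after 8 hours of MG132 stress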
T1 sequence (P38532 whole entry): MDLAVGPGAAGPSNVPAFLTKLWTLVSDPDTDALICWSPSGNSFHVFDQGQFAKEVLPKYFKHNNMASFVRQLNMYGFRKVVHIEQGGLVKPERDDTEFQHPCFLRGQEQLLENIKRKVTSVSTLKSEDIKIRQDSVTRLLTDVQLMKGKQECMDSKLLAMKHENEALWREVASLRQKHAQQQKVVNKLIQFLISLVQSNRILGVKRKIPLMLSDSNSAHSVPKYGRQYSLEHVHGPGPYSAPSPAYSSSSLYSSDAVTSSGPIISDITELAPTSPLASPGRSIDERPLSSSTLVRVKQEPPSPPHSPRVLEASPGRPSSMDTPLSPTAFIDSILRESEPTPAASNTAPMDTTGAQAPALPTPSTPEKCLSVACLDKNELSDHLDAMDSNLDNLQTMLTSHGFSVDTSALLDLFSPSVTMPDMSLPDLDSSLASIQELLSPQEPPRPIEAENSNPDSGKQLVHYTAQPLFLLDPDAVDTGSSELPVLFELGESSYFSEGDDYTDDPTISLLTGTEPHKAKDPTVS

Cytochrome P450 1A2 = molecular target: T2, Cytochrome P450 1A2 (Homo sapiens, UniProt P05177);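 note: PubChem cytochrome P450 panel assay, CYP1A2 panel member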
T2 sequence (P05177 whole entry): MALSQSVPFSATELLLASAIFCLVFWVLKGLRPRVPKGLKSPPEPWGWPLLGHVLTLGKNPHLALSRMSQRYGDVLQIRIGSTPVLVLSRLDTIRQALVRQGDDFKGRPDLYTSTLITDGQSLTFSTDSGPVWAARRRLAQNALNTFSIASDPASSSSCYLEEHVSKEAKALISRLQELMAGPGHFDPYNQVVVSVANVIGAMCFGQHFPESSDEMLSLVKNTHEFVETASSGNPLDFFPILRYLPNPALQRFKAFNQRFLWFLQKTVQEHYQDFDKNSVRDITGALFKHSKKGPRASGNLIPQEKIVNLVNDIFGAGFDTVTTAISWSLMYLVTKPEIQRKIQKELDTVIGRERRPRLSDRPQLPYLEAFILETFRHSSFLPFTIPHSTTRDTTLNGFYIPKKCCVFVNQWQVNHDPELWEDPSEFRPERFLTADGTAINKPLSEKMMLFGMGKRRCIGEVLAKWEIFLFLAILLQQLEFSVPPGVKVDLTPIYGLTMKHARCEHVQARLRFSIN

Protein Rev = Protein Rev (Human immunodeficiency virus type 1 group M subtype B (isolate WMJ22)(HIV-1), UniProt P05866); test: HIV-1 Rev-RRE RNA binding disruptors, dose response, biochemical, protein-RNA interaction (AID 842); design: species or system Human immunodeficiency virus 1
[2] = molecular target: Nucleotide-binding oligomerization domain-containing protein 2 (Homo sapiens, UniProt Q9HC29); test: PubChem AID 2334; format: functional
[3] = THP-1 cell cytotoxicity, dose response, cytotoxicity control for non-replicating M. tuberculosis project (AID 489025); format: functional
[4] = HepG2 cell cytotoxicity, dose response, cytotoxicity control for non-replicating M. tuberculosis project (AID 489018); format: functional; details: Mycobacterium tuberculosis
Tumor necrosis factor = Tumor necrosis factor (Homo sapiens, UniProt P01375); test: TNFa-triggered NF-kB activation inhibitors, SAR follow-up, cell-based, revised (AID 2337); format: functional
[5] = Vero E6 cell cytotoxicity, dose response, cytotoxicity control for non-replicating M. tuberculosis project, secondary assay (AID 492998); format: functional, VeroE6; details: Vero C1008
HEK293 = test: cells; details: Homo sapiens;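 note: cells exposed to compound for 14 hours overnight before viability readout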
[6] = molecular target: T3, Nucleotide-binding oligomerization domain-containing protein 1 (Homo sapiens, UniProt Q9Y239); test: NOD1 signaling inhibitors, SAR follow-up, revised (AID 2333); format: functional
T3 sequence (Q9Y239 whole entry): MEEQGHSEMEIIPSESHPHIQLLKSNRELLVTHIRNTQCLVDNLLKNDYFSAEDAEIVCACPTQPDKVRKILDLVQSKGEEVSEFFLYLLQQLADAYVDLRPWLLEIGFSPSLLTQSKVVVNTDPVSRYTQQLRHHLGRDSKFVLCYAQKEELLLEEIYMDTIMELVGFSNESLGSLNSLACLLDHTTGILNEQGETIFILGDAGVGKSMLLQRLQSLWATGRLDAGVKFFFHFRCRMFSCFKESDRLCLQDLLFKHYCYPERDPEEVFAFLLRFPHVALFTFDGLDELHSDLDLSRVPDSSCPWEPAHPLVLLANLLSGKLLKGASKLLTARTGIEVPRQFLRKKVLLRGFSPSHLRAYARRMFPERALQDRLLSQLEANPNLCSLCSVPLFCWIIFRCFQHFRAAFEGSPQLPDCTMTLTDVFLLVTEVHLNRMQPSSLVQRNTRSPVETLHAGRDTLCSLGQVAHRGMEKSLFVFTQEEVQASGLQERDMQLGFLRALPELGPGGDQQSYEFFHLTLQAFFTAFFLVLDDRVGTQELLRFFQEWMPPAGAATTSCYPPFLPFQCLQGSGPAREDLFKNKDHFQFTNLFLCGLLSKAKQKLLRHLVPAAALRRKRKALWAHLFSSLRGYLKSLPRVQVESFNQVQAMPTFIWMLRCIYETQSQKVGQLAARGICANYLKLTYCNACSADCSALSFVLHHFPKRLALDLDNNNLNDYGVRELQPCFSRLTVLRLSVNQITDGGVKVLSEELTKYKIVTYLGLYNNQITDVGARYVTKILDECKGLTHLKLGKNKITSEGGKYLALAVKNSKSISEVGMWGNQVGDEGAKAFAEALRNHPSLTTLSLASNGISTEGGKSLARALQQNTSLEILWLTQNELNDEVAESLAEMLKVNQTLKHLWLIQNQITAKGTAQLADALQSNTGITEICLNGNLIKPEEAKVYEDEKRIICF

cells = format: functional
[7] = molecular target: NACHT, LRR and PYD domains-containing protein 3 (Homo sapiens, UniProt Q96P20); test: NALP3 inhibitors in yeast, dose response, luminescent (AID 488799); format: functional
[8] = molecular target: T4, Delta-type opioid receptor (Homo sapiens, UniProt P41143); test: DOR agonists, SAR follow-up, image-based (AID 2370); format: functional
[9] = molecular target: T4, Delta-type opioid receptor; test: DOR antagonists, SAR follow-up, image-based (AID 2357); format: functional
[10] = molecular target: T5, Kappa-type opioid receptor (Homo sapiens, UniProt P41145); test: kappa opioid receptor blockers, cell-based, luminescence, beta-arrestin, SAR follow-up (AID 2285); format: functional
Mu-type opioid receptor [11] = molecular target: T6, Mu-type opioid receptor (Homo sapiens, UniProt P35372); test: MOR antagonists, SAR follow-up, image-based (AID 2420); format: functional;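 note: compounds added before stimulation of receptor with agonist DAMGO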
Mu-type opioid receptor [12] = molecular target: T6, Mu-type opioid receptor; test: MOR agonists by imaging, SAR follow-up, image-based (AID 2352); format: functional
[13] = molecular target: T5, Kappa-type opioid receptor; test: KOR agonist analogs, imaging readout, SAR follow-up, image-based (AID 2359); format: functional
[14] = molecular target: T5, Kappa-type opioid receptor; test: KOR antagonists by imaging, SAR follow-up, image-based (AID 2348); format: functional
[15] = molecular target: Melanin-concentrating hormone receptor 1 (Homo sapiens, UniProt Q99705); test: Fluorescence-based counterscreen for antagonists of the G-protein coupled receptor 7 (GPR7): cell-based high throughput dose response assay to identify antagonists of the melanin-concentrating hormone receptor 1 (MCHR1).; format: functional
Chain of Melanin-concentrating hormone receptor 1 (Q99705 whole entry): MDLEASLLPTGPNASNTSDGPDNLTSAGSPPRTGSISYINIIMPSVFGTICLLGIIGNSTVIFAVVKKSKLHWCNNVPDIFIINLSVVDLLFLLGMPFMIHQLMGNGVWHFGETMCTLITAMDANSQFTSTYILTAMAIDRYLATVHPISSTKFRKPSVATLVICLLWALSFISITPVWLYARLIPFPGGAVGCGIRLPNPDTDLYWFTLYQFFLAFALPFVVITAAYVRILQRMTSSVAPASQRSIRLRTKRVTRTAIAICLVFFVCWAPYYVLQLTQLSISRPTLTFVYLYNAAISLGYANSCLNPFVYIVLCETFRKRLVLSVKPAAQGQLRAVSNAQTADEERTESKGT

T5 sequence (P41145 whole entry): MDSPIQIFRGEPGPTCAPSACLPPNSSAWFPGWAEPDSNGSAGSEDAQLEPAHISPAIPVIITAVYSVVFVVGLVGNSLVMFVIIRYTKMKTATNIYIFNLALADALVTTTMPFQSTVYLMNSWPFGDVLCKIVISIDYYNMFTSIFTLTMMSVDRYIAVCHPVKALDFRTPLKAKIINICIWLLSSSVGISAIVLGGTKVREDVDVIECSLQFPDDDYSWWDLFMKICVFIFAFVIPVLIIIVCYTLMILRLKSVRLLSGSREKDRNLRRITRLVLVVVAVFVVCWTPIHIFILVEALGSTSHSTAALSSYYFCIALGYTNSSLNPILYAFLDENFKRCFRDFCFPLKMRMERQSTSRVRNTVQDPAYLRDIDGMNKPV
T6 sequence (P35372 whole entry): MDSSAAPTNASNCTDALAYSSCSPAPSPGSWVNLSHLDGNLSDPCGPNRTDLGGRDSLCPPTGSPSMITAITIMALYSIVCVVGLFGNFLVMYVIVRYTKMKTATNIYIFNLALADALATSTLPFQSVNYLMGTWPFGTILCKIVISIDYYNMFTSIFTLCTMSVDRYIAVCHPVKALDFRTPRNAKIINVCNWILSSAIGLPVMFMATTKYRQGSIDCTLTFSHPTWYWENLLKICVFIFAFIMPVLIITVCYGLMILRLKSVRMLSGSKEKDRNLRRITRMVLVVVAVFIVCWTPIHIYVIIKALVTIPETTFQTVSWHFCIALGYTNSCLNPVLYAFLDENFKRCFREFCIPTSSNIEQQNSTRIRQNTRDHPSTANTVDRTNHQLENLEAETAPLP
T4 sequence (P41143 whole entry): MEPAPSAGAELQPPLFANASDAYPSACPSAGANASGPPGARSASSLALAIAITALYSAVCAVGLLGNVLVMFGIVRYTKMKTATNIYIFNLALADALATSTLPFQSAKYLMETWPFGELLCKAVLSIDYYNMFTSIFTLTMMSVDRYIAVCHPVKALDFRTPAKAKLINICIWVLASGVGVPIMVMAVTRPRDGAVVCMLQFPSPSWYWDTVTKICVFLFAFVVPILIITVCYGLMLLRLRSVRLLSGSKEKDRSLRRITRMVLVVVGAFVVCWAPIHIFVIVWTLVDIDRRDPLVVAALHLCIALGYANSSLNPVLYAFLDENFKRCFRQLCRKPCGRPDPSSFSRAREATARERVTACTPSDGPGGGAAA
Chain of Protein Rev (P05866 whole entry, the tested form may be a part): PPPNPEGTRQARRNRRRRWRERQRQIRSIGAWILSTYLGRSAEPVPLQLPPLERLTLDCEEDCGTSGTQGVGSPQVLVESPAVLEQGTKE
Chain of Tumor necrosis factor (P01375 whole entry): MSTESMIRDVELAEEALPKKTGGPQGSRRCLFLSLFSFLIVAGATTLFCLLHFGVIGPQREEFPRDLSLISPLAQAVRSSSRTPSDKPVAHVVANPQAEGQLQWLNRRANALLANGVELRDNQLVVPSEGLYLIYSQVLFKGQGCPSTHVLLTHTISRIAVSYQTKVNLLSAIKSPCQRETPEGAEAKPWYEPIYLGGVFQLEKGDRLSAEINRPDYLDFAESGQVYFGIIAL
Chain of NACHT, LRR and PYD domains-containing protein 3 (Q96P20 whole entry, the tested form may be a part): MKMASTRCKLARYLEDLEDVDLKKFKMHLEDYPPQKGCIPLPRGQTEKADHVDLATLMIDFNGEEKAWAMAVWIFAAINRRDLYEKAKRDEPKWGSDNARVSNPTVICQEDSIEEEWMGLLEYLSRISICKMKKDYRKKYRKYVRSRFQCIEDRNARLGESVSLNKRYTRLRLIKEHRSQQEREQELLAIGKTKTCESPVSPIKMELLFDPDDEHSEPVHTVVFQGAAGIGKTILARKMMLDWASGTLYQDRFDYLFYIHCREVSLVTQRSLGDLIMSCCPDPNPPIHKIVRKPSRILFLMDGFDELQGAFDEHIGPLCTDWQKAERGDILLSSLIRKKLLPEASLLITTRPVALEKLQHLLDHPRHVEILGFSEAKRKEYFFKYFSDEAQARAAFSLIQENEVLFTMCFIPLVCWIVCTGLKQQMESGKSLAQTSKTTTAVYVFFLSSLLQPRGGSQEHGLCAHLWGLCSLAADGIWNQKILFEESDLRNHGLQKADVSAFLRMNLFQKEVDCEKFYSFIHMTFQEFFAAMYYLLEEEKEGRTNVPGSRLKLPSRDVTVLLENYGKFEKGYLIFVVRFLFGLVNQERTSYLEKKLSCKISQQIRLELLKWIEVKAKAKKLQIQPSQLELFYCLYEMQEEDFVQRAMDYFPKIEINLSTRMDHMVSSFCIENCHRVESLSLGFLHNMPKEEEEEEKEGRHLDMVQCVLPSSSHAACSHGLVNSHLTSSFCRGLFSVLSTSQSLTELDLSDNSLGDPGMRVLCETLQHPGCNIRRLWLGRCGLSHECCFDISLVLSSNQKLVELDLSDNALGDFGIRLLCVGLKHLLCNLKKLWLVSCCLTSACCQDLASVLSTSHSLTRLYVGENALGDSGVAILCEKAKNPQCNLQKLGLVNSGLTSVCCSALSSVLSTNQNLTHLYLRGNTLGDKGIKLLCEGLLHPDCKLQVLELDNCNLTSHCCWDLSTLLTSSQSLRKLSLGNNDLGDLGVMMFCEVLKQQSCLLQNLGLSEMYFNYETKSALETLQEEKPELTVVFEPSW
Chain of Cytochrome P450 3A4 (P08684 whole entry): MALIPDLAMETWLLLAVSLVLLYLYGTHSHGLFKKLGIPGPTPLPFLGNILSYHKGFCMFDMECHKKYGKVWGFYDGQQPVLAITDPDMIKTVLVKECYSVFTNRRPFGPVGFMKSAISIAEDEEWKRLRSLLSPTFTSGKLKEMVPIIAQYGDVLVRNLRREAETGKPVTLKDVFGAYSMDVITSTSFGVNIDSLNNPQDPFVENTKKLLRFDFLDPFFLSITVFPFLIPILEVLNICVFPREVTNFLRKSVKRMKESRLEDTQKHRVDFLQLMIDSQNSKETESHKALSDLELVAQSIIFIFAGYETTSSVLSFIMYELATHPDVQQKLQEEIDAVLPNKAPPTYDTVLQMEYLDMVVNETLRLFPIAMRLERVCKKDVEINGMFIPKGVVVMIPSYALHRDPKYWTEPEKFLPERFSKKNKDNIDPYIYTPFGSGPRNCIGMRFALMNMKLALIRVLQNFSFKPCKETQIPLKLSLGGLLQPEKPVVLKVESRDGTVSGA
Chain of Nucleotide-binding oligomerization domain-containing protein 2 (Q9HC29 whole entry, the tested form may be a part): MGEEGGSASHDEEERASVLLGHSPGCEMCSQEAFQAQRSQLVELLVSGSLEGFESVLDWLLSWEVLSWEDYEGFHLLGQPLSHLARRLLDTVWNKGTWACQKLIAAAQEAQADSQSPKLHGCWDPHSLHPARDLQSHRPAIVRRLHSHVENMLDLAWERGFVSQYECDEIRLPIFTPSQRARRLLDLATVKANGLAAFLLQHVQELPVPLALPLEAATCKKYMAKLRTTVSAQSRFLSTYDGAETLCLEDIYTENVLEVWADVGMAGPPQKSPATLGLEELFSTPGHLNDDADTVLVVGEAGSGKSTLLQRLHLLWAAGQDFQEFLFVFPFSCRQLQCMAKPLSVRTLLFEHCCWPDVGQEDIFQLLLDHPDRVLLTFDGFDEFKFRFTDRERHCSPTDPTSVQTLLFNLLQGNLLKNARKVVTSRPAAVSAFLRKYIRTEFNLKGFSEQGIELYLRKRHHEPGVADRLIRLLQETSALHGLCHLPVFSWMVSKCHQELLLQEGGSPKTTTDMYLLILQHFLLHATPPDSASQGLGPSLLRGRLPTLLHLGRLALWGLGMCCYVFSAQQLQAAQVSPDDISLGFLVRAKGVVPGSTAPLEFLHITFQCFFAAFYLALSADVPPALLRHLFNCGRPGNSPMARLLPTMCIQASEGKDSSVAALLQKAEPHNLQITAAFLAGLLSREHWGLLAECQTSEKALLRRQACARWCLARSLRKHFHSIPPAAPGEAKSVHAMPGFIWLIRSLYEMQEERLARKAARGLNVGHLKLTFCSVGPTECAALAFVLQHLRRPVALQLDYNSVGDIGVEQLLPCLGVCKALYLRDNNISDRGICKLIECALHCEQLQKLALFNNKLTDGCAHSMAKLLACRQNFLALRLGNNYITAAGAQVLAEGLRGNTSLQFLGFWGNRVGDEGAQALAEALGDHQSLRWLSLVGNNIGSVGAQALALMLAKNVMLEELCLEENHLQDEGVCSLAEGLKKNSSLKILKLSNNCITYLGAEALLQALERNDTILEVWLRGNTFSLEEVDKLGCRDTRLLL

CC[n+]1c(/C=C/Nc2ccccc2)oc2ccccc21
AC50 (Cytochrome P450 3A4): 25.1 µM (inconclusive) | EC50 [1]: > 195 µM (not active) | AC50 (Cytochrome P450 1A2): 15.8 µM (inconclusive) | IC50 (Protein Rev): 5.66 µM (active)

CC(=O)Nc1nc2ccccc2n1Cc1ccc(Cl)cc1
IC50 [2]: > 20 µM (inactive) | CC50 [3]: 30.9 µM (active) | CC50 [4]: > 20 µM (active) | IC50 (Tumor necrosis factor): > 20 µM (inactive) | CC50 [5]: 12.9 µM (active) | IC50 (HEK293): > 20 µM (inactive) | IC50 [6]: 18.8 µM (active) | IC50 (cells): 1.02 µM (active)

O=c1c2cc(Cl)ccc2nc(-c2ccc([N+](=O)[O-])cc2)n1O
IC50 [7]: 6.6 µM (active) | CC50 [3]: 22.6 µM (active) | CC50 [5]: 17.3 µM (active) | IC50 (cells): 17.8 µM (active)

O=C(c1ccc(CNS(=O)(=O)c2ccccc2)cc1)N1CCN(Cc2ccccc2)CC1
EC50 [8]: > 32 µM (inactive) | IC50 [9]: > 32 µM (inactive) | IC50 [10]: > 10 µM (inactive) | IC50 (Mu-type opioid receptor [11]): > 32 µM (inactive) | EC50 (Mu-type opioid receptor [12]): > 32 µM (inactive) | EC50 [13]: > 32 µM (inactive) | IC50 [14]: > 32 µM (inactive)

COC(=O)[C@@H](Cc1c[nH]c2ccccc12)NC(=O)CCC(=O)c1ccc(Br)cc1
IC50 [15]: 24.5 µM (not active)
